Patent publication US10814010B2, “FOXC2 inhibitor and methods of use thereof” (The Board of Regents of The University of Texas System, priority 2018, dated 2020)

What was measured:
[1] = system: DU145 cells; experiment: MTT cell viability assay, DU145; type: cell-based; conditions: single agent
Description: In order to determine the EC50 of MC-1-F2, an MTT assay on cell viability was performed in both DU145 and PC3.
(§1) Cell viability was assessed by MTT (3-(4,5-Dimethylthiazol-2-yl)-2,5-Diphenyltetrazolium Bromide) assay 5,000 cells were seeded on a 96-well cell culture plate and were incubated for at least 24 hours prior to drug treatment. The MTT reagent (Fisher Scientific) was added to the culture medium 3 hours prior to the end of compound incubation. The reaction took place in the 37° C. incubator with 5% CO2 for 3 hours. Cell culture medium was then removed from the wells. Cells with the insoluble purple formazan were lysed with DMSO for 10 mins at room temperature, 200 μL per well. Absorbance was read at 570 nm using a plate reader.

[2] = system: PC3 cells; experiment: MTT cell viability assay, PC3; type: cell-based
Source text: Inhibition of EMT in CRPC could lead to a new form of therapeutics to aid once androgen-independence is achieved. However, in order for MC-1-F2 to be considered an effective chemotherapeutic agent, its EC50 in prostate cancer needed to be determined as well as how it compares to other chemotherapeutic agents on the market and whether it is able to inhibit chemoresistance or lower the sensitivity of CRPC to commercially available drugs. In order to determine the EC50 of MC-1-F2, an MTT assay on cell viability was performed in both DU145 and PC3. […] These doses are higher than those encountered with breast cancer cell lines. This is most likely due to the lower FOXC2 expression levels founds in prostate cell lines when compared to the breast cell lines.
as §1

Structure (SMILES)	effect on cell viability [1]	effect on cell viability ([2]; single agent)	EC50 ([2]; Homo sapiens, PC-3, single agent)
CNC(=O)c1ccc(N2C(=S)N(c3ccc(C#N)c(C(F)(F)F)c3)C(=O)C2(C)C)cc1F [Enzalutamide, reference compound]	no effect	no effect	–
CC(=O)O[C@@]12CO[C@@H]1C[C@H](O)[C@@]1(C)C(=O)[C@H](O)C3=C(C)[C@@H](OC(=O)[C@H](O)[C@@H](NC(=O)OC(C)(C)C)c4ccccc4)C[C@@](O)([C@@H](OC(=O)c4ccccc4)[C@H]21)C3(C)C [docetaxel]	–	–	7.6 nM
